The METLIN SMRT retention time set (Domingo-Almenara et al. 2019)

Test: gradient 5% acetonitrile 3 min, to 50% in 2 min, to 85% in 15 min, held 3 min, 100 µL/min
Settings: column: Zorbax Extend-C18 2.1 x 50 mm; eluents: water / acetonitrile, 0.1% formic acid
In short: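 The system's dead and dwell volumes were 40 μL and 900 μL, with a Zorbax Extend-C18 column (2.1 × 50 mm, 1.8 μm) run at 100 μL/min in water and acetonitrile containing 0.1% formic acid each. Pure standards were analyzed in mixtures of ~100 molecules by HPLC–quadrupole time-of-flight mass spectrometry in positive and negative ionization mode. Retention time was assigned from computationally picked, manually inspected adduct peaks.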

| Structure (SMILES) | RP-LC retention time [s] |
| --- | --- |
| COc1ccc(CCn2nnnc2C2(c3ccc(C)cc3)CC2)cc1 | 1150 |
| Cc1ccc(C)c(NC(=O)Nc2cccc(-c3cn4cccnc4n3)c2)c1 | 696 |
| O=C(CSc1ccc(N2CCCC(C(=O)NC3CC3)C2)nn1)Nc1ccccc1Br (stereo not drawn) | 664 |
| O=C(NC1CCCC1)C1CCCN(c2nc3ccsc3c(=O)n2Cc2ccc(F)cc2)C1 (stereo not drawn) | 913 |
| CN(C)CCNC(=O)c1ccc2ccnc(N3CCN(C(=O)c4ccco4)CC3)c2c1 | 557 |
| Cc1ccccc1N1CCN(S(=O)(=O)c2cc(-c3nnc(C4CCC4)o3)co2)CC1 | 1140 |
| Cc1cc2c(cc1S(=O)(=O)N1CCN(c3ccccn3)CC1)n(C)c(=O)n2C | 606 |
| CCOc1ccc(-c2nc(NC(=O)c3ccccc3[N+](=O)[O-])sc2C)cc1 | 1050 |
| O=C(NCCc1ccccc1)C1CN(S(=O)(=O)c2cccnc2)CC12CCCCC2 (stereo not drawn) | 895 |
| CCCCn1c(=O)c2ccccc2n(Cc2nc(-c3ccc(OCC)c(OC)c3)no2)c1=O | 968 |
| CCN1CCN(c2nc(-c3cccnc3)nc3ccccc23)CC1 | 524 |
| Cc1cc2nn(CC(=O)Nc3ccc(F)cc3)c(=O)n2c(-c2ccccc2)n1 | 785 |
| COc1ccc(Cl)cc1C(=O)Nc1ccc2c(c1)C(=O)NCCO2 | 951 |
| CCc1noc(-c2ccnc(-n3ncc(C(=O)N4CCOCC4)c3C)c2)n1 | 760 |
| CCn1ccc2c(cc(C(=O)Nc3cc(Cl)ccc3OC)n2C)c1=O | 1150 |
| CN1C(=O)c2cc(S(=O)(=O)NCc3ccc(F)cc3)ccc2Oc2cccnc21 | 951 |
| CCOc1ccc(NC(=O)C2CCCN(c3nnc4cccc(C)n34)C2)cc1 (stereo not drawn) | 724 |
| O=C([C@@H]1C[C@H](F)CN1C(=O)C1(c2ccccc2)CC1)N1CCOCC1 | 639 |
| CCCN1C(=O)CCc2cc(NS(=O)(=O)c3ccc(CC(C)C)cc3)ccc21 | 1030 |
| COC(=O)c1cc(S(=O)(=O)N2CCCC2C(=O)Nc2ccc(C#N)cc2)cn1C (stereo not drawn) | 841 |

| Structure (SMILES) | RP-LC retention time [s] |
| --- | --- |
| Cc1ccc(CSc2nc(CC(=O)NCc3cccnc3)cs2)cc1 | 605 |
| Cc1ccc(C(=O)NCc2nn(C)c3ccccc23)c(C)c1 | 857 |
| COc1nc2ccccc2nc1N1CCCC(C(=O)N2CCN(c3ccccc3Cl)CC2)C1 (stereo not drawn) | 1360 |
| CN1C(=O)c2cccn2CC1C(=O)Nc1ccc(F)cc1 (stereo not drawn) | 677 |
| CCc1ccc(S(=O)(=O)N2CCC(n3cnnc3C3CC3)CC2)cc1 | 772 |
| CCOc1ccccc1CN1C[C@@H](CO)[C@H](c2ccccn2)C1 | 620 |
| COC(=O)c1c(NC(=O)c2cnn(-c3ccccc3)c2C)sc2c1CCN(C(C)=O)C2 | 812 |
| O=C1CCCN1c1ccc(Cn2cccc(S(=O)(=O)N3CCCC3)c2=O)cc1 | 696 |
| Cc1cc(C)n(-c2ccc(=O)n(CCNC(=O)CCn3cnc4ccccc4c3=O)n2)n1 | 605 |
| CC(C)n1cnc(S(=O)(=O)N2CCC(C(=O)N3CCN(c4ccc(Cl)cc4)CC3)CC2)c1 | 865 |
| COc1ccc(-c2cc3c4nnc(CCC(=O)NCc5ccco5)n4ccn3n2)cc1 | 665 |
| COc1ccc(C2C(C(=O)NCCCN3CCOCC3)c3cc(OC)c(OC)cc3C(=O)N2C)cc1 (stereo not drawn) | 612 |
| O=C(NC1CCN(c2cc(-c3cccs3)[nH]n2)C1)c1cccc(Cl)c1 (stereo not drawn) | 719 |
| Cc1cccc(N2CCN(c3ccc4cc(S(=O)(=O)N5CCCCC5)ccc4n3)CC2)c1C | 1320 |
| COc1ccc(-c2c(NC(=O)c3cccs3)n(C)c3ccccc3c2=O)cc1 | 668 |
| O=C([C@@H]1C[C@H](F)CN1C(=O)NCc1ccc(F)cc1)N1CCc2ccccc2C1 | 747 |
| Cn1nc(C2CCN(S(=O)(=O)c3cccc(Cl)c3)CC2)n(C2CCCC2)c1=O | 925 |
| Cc1ccc(C2=NC3(CCN(C(=O)c4ccc(C(C)(C)C)cc4)CC3)ON2)cc1 | 975 |
| O=C(NCCc1c[nH]c2ccccc12)c1cc(S(=O)(=O)N2CCCCC2)ccc1Cl | 966 |
| CC1(C(=O)NCc2ccccc2)CN(S(=O)(=O)c2ccccc2)CC(=O)N1c1ccc(Cl)cc1 (stereo not drawn) | 956 |

| Structure (SMILES) | RP-LC retention time [s] |
| --- | --- |
| COc1ccc(CC(C)(O)CNC(=O)c2cc(Br)ccc2Cl)cc1 (stereo not drawn) | 822 |
| CN1C(=O)CCCCC1C(=O)NCc1cccs1 (stereo not drawn) | 637 |
| O=C(CN1CCC(c2nc(-c3cccs3)no2)CC1)NCc1ccc2c(c1)OCO2 | 672 |
| O=C(c1cn2ccccc2n1)N1CCN(c2ccccc2Cl)CC1 | 854 |
| O=C(NCc1cccs1)c1ccnc(N2CCNC(c3ccccc3)C2)c1 (stereo not drawn) | 631 |
| N#Cc1ccc(C(=O)N2CCOCCNC(=O)[C@@H]3CCC[C@@H]32)cc1 | 659 |
| CCC1CCCCN1C(=O)c1cnc2nc(C)ccc2c1Nc1ccc(OC)c(Cl)c1 (stereo not drawn) | 668 |
| CCOc1cc(=O)n2c(c1C(=O)Nc1ccc(C(N)=O)cc1)CCCC2 | 584 |
| O=C(O)Cn1ncc2ccccc2c1=O | 572 |
| CCS(=O)(=O)Nc1cccc(C(=C2CCCCC2)c2cnc[nH]2)c1 | 738 |
| Cc1ccc2cc(CCC(=O)NC3CCN(Cc4ccccc4)CC3)c(=O)[nH]c2c1 | 614 |
| COc1ccc(N2CCN(c3cc(SCC(=O)Nc4ccc(Cl)cc4F)ncn3)CC2)cc1 | 1090 |
| Cc1ccc(S(=O)(=O)N2CC(=O)N(Cc3ccccc3)C(C)(C(=O)NCc3ccccc3)C2)cc1 (stereo not drawn) | 1010 |
| CSc1cccc(NC(=O)Cn2cccc(-c3nc(-c4ccccc4)no3)c2=O)c1 | 911 |
| Cc1nc(CCNC(=O)[C@H]2CCCN2C(=O)c2ccccc2)cs1 | 622 |
| COc1ccc(S(=O)(=O)N2CC3CN(C(=O)C(C)Oc4ccccc4)CC(C2)O3)cc1 (stereo not drawn) | 844 |
| O=C(NCC1(c2cccs2)CCOCC1)c1ccccc1F | 763 |
| O=C(NCC1(N2CCOCC2)CCOC1)Nc1ccccc1C(F)(F)F (stereo not drawn) | 596 |
| COc1cc2c(cc1CNC(=O)Cn1c(C)nc3cc4c(cc31)OCCO4)OCCCO2 | 643 |
| Cc1oc(C(C)C)nc1C(=O)NCc1ccc(C(F)(F)F)cc1 | 1060 |

Second part, the molecule after the results:

| RP-LC retention time [s] | Structure (SMILES) |
| --- | --- |
| 716 | Cc1csc(-c2cn(CC(=O)NCc3cccc(C(F)(F)F)c3)cn2)n1 |
| 860 | COc1ccc(C2CC(=O)N(c3cccc(OC)c3)C(=O)C2)cc1 |
| 594 | Cc1noc2ncnc(N3CCCC(C(=O)N4CCN(C5CCCCC5)CC4)C3)c12 (stereo not drawn) |
| 1050 | CCOC(=O)COc1ccccc1C1CC(c2ccc(Br)cc2)=NN1C(C)=O (stereo not drawn) |
| 597 | CC(CCNC(=O)c1ccc2ccnc(N3CCN(c4ccc(F)cc4)CC3)c2c1)N1CCCC1 (stereo not drawn) |
| 1090 | O=C(NCCCc1ccccc1)C1CCCN(c2nccnc2Sc2ccccc2)C1 (stereo not drawn) |
| 1030 | CCn1nc(-c2nc(-c3ccc(Cl)cc3)no2)ccc1=O |
| 1020 | CCC1Oc2ccc(S(=O)(=O)N3CCC(C(=O)Nc4ccc(C)c(Cl)c4)CC3)cc2NC1=O (stereo not drawn) |
| 758 | CC1=C(c2ccc(C)cc2)S(=O)(=O)N=C1N1CCCN(C(=O)c2ccccn2)CC1 |
| 630 | CCN1CCC2(CC1)OC(=O)C(C)=C2C(=O)NCC(C)c1ccccc1 (stereo not drawn) |
| 869 | O=S(=O)(NCCOc1ccccc1)c1ccccc1Cl |
| 855 | O=S(=O)(c1cccn2c(SCc3c(F)cccc3Cl)nnc12)N1CCCC1 |
| 1010 | Cc1ccc(-c2noc(-c3cccn4c(=O)n(Cc5ccc6c(c5)OCO6)nc34)n2)cc1 |
| 1010 | CCOC(=O)c1noc2ncnc(Nc3ccccc3C)c12 |
| 965 | O=C(Nc1cc(-c2ccccn2)no1)c1ccc2ccccc2n1 |
| 650 | Cc1nn2c(CNC(=O)c3ccc(C)c(C)c3)c(C)nc2s1 |
| 756 | Cn1c(=O)c2nc(S(=O)(=O)CCC(=O)Nc3ccc(F)c(Cl)c3)n(C)c2n(C)c1=O |
| 643 | CCS(=O)(=O)c1ccc(-c2ccc(NS(C)(=O)=O)cc2)nn1 |
| 960 | COc1ccc(-c2nc(-c3cn(-c4ccc(F)cc4)nn3)no2)cc1OC |
| 847 | Cc1ccc([C@@H]2O[C@H](CO)[C@@H](O)[C@H](O)[C@H]2O)cc1Cc1ccc(-c2ccc(F)cc2)s1 |
| 782 | CCn1nc(C)c2c(-c3ccccc3)cc(OC(C)C(=O)NCc3ccco3)nc21 (stereo not drawn) |
| 754 | Cc1ccsc1C(=O)N1C[C@H]2C[C@H](C1)[C@H]1CCCC(=O)N1C2 |
| 705 | COCC(=O)NC1CCN(c2ccc(C)c(C)c2)C1=O (stereo not drawn) |
| 994 | O=C(Nc1cccc(F)c1)N1CCCC1c1nc(-c2cccc(F)c2)no1 (stereo not drawn) |
| 561 | CCOc1ccc(NC(=O)N2CCc3[nH]cnc3C2c2ccncc2)cc1 (stereo not drawn) |
| 613 | COc1ccc(Cl)cc1NC(=O)CSc1ccc(-n2ccnc2)nn1 |
| 874 | CC(C)n1nc(CNC(=O)c2ccccn2)c2ccccc21 |
| 1300 | CCc1cc(Br)ccc1NC(=O)C1CCCN(c2nc3ccccc3nc2OC)C1 (stereo not drawn) |
